The numbers were not newly measured in patent publication US9730971B2 (priority 2008, dated 2017), which cites them from elsewhere.

What all share (details): reported in Non Patent Literature 2
Series [1] concerns Gram-negative bacteria such as Escherichia coli, Enterobacter aerogenes, and Pseudomonas aeruginosa.
Series [2] deals with fungi such as Saccharomyces cerevisiae, Candida utilis, and Penichillium chrysogenum.
Series [3] concerns Gram-positive bacteria such as Staphylococcos aureus, Streptococcus mutans, Bacillus subtilis, and Bacillus ammoniagenes.

With `CCCCCCCCCCCCCCCc1cccc(O)c1C(=O)O` [anacardic acid], the antimicrobial action result in series [1] was “no antimicrobial action”; in series [2] it was “no antimicrobial action”; in series [3] it was “antimicrobial action”.
